Measured values taken from US6645969B1, “Aryl and heteroaryl quinazoline compounds which inhibit CSF-1R receptor tyrosine kinase” (Aventis Pharmaceuticals Inc., priority 1991, dated 2003).
pIC50: −log10 of the molar value.

Assays:
p56^Ick tyrosine kinase = biological target: T1, p56^Ick tyrosine kinase (Homo sapiens, UniProt P06239); experiment: Ick kinase cell-free assay (immunoprecipitated from Jurkat lysate); format: biochemical
T1 construct: samples containing Ick immuno-precipitated from 2×10^6 cells; endogenous in cells; host or cells: Jurkat (human T-cell leukemia, ATCC clone E6-1)
Description: Ick Kinase: Immunoprecipitated from Jurkat Lysate
B. Cells are grown to 1-1.5×10^6 cells/ml media, pelleted by centrifugation, and lysed in lysis buffer at 10^8 cells/ml buffer (50 mM tris (pH 8), 150 mM NaCl, 5 mM EDTA, 10% glycerol, and 1% NP-40, to which fresh protease and phosphatase inhibitors are added as described above for A431 lysate). Lysates stored at −70° C.
C. Immunoprecipitation: 3-4 mg Protein-A sepharose/sample washed 2×20 mM Hepes (pH 7.5). 1 ul α-Ick antibody (prepared as polyclonals in rabbits using a peptide antigen corresponding to the N-terminal region of human Ick) per sample added to the Protein-A and shaken 20 min at room temperature. After washing 3× HNTG, lysate from 2×10^6 cells is added to each sample, rotated 2 hr at 4° C., then washed 3× HNTG (2nd wash containing 0.5 N NaCl). If all samples contain identical concentrations of the enzyme, then the immuno-precipitation can be done in bulk and alloquoted to appropriate numbers of tubes prior to assay set-up.
Samples are analyzed by 5-15% SDS-PAGE and autoradiography as described for EGFR kinase assays.

CSF-1R tyrosine kinase = biological target: T2, CSF-1R tyrosine kinase (Homo sapiens, UniProt P07333); experiment: CSF-1R cell-free autophosphorylation assay; format: biochemical
T2 construct: host or cells: unnamed cell lysate ('stimulated lysate')
Description: CSF-1R Cell-free Autophosphorylation Assay
For a regular 28 tube assay (14 samples per 15 well gel):
In 2 ml eppendorf tube: 140 mg protein A sepharose (5 mg/sample)
Swell in 20 mM Hepes pH 7.5 and wash 2× in Hepes
In 15 ml tube: 2.8 ml lysate lysis buffer: 20 mM Hepes
Protease inhibitors added fresh:
PMSF: 8 mg/ml=[…] in 100% EtOH, store frozen, add 100 λ/10 ml lysis buffer Aprotinin: 10 mg/ml=250× in H2O, store frozen, add 40 λ/10 ml lysis buffer Leupeptin: 1 mg/ml=250× in H2O, store frozen, add 40 λ/10 ml lysis buffer Add washed beads to stimulated lysate and incubate 90 min 4° C. on rotator or shaking prepare 28 compound tubes: make 40 mM solutions of compounds in 100% DMSO make serial dilutions in 50 mM Tris pH 7.5+10 mM MnCl2 aliquot 10λ compound solution into each 1 ml eppendorf reaction tube waiting on ice, control blanks get 10λ buffer Wash beads 1×HNTG, 2×10 mM Tris pH 7.5
2.7λ cold ATP (stock of 10 mM in 50 mM
Vortex, incubate 10 min on ice
Add 45λ 2×SDS-sample buffer, heat 95° C. 6 min
7.5% SDS-PAGE, fix, dry, expose (usually 4 hrs)

T1 sequence (P06239 whole entry): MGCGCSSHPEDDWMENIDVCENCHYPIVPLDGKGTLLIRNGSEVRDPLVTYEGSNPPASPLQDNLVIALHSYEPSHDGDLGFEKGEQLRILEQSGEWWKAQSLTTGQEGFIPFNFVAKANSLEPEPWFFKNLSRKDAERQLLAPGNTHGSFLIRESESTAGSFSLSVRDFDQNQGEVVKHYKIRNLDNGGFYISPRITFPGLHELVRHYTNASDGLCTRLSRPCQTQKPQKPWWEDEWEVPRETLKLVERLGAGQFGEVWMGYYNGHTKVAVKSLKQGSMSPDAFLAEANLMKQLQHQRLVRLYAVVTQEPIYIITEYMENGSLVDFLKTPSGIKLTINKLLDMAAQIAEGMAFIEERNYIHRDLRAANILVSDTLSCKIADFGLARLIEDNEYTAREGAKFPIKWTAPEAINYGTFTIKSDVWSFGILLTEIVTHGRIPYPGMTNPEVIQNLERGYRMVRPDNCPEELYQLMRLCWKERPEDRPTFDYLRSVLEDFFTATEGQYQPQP
T2 sequence (P07333 20-972): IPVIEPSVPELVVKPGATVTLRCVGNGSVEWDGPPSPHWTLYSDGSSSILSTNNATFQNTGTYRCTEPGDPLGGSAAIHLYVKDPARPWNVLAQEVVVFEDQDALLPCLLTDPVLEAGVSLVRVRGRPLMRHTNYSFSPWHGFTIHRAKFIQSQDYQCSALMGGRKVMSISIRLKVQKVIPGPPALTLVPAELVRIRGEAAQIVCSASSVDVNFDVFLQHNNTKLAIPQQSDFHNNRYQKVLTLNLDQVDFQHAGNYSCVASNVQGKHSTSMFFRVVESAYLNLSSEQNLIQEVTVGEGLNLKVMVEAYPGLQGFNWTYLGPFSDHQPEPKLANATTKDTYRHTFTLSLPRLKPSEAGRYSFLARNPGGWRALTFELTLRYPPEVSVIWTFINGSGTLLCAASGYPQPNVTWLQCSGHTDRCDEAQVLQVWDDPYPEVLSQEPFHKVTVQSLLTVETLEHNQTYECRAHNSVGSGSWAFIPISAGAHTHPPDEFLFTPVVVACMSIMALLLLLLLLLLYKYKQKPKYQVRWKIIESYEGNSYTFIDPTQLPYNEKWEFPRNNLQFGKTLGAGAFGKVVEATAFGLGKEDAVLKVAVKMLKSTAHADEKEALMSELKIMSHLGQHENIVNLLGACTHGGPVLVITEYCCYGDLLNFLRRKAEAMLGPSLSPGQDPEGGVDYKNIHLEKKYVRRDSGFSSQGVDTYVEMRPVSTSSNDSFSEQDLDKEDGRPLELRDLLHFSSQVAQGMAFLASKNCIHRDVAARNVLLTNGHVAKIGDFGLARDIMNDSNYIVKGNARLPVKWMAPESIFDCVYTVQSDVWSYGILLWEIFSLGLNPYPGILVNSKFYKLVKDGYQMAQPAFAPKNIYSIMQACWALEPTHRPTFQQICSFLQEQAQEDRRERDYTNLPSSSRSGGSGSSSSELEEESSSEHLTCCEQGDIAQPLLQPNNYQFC

pIC50 (p56^Ick tyrosine kinase)	pIC50 (CSF-1R tyrosine kinase)	melting point	Structure (SMILES)
< 5.00	5.22	–	COc1cc2ncnc(-c3ccsc3)c2cc1OC
< 4.30	6.30	–	COc1cc2ncnc(N(C)c3ccccc3)c2cc1OC
< 4.30	5.40	–	CCN(c1ccccc1)c1ncnc2cc(OC)c(OC)cc12
–	< 4.00	–	COc1cc(Nc2ncnc3cc(OC)c(OC)cc23)cc(OC)c1
–	< 4.00	–	COc1cc2ncnc(Nc3cc(OC)c(OC)c(OC)c3)c2cc1OC
–	< 4.30	–	COc1cc2ncnc(NC3CCCCC3)c2cc1OC
–	< 4.30	–	COc1cc2ncnc(Nc3ccc4ccccc4c3)c2cc1OC
5.60	< 4.30	–	COc1cc2ncnc(Nc3cccc4ccccc34)c2cc1OC
–	< 4.70	–	COc1ccc(Nc2ncnc3cc(OC)c(OC)cc23)cc1OC
4.70	≤ 4.70	–	COc1cc2ncnc(NCc3ccccc3)c2cc1OC
5.60	5.52	–	COc1cc2ncnc(Sc3cccc(Cl)c3)c2cc1OC
5.30	6.00	–	COc1cccc(Sc2ncnc3cc(OC)c(OC)cc23)c1
5.30	< 4.30	–	COc1cc2ncnc(Oc3cc(OC)c(OC)c(OC)c3)c2cc1OC
5.54	4.82	–	COc1cc2ncnc(-c3cccc(-c4ccccc4)c3)c2cc1OC
–	–	152 to 153 °C	COc1cc2ncnc(Oc3cccc(Cl)c3)c2cc1OC [Example 1, 4-(3-Chlorophenoxy)-6,7-dimethoxyquinazoline]
6.00	< 4.30	–	COc1cc2ncnc(Oc3cccc(Cl)c3)c2cc1OC [drawing 19]
